Laboratory results: patent publication US10801077B2, “Influenza A virus variants” (Vertex Pharmaceuticals Incorporated, priority 2014, dated 2020)

Columns and labels:
PR8-PB2-F325V = format: cell-based, influenza A virus
PR8-Wild Type = assay: microbe, parasite or virus in culture; format: cell-based, influenza A virus
PR8-PB2-M431I = format: cell-based, influenza A virus
PR8-PB2-F323L = format: cell-based, influenza A virus
PR8-PB2-K376R = format: cell-based, influenza A virus
[1] = tested on: A/Puerto Rico/8/34, A/California/07/2009, A/Wisconsin/67/2005 influenza virus variants; format: cell-based
PR8-PB2-S324R = format: cell-based, influenza A virus
PR8-PB2-H357Q = format: cell-based, influenza A virus
PR8-PB2-S324N = format: cell-based, influenza A virus
PR8-PB2-K376Q = format: cell-based, influenza A virus

## CC(C)(C)[C@@H](CC(=O)O)Nc1nc(-c2c[nH]c3ncc(F)cc23)ncc1F [Compound 1]
PR8-PB2-F325V
  Sensitivity to Compound 1 Fold EC50 Shift: 3.5 fold
PR8-Wild Type
  Sensitivity to Compound 1 Fold EC50 Shift: 1.0 fold
PR8-Wild Type; Influenza A virus, PR8, MDCK, read-out: Sensitivity to Compound 1 EC50 (SD)
  EC50: 1.3 nM
PR8-PB2-M431I
  Sensitivity to Compound 1 Fold EC50 Shift: 131 fold
PR8-PB2-F323L
  Sensitivity to Compound 1 Fold EC50 Shift: 8.5 fold
PR8-PB2-K376R
  Sensitivity to Compound 1 Fold EC50 Shift: 231 fold
[1]
  reduction in sensitivity to Compound 1: > 10 fold
  shift in Compound 1 EC50: 10- to 1720 fold
  shifts in sensitivity to Compound 1: greater than 10 fold
PR8-PB2-S324R
  Sensitivity to Compound 1 Fold EC50 Shift: 33 fold
PR8-PB2-H357Q
  Sensitivity to Compound 1 Fold EC50 Shift: 15 fold
PR8-PB2-S324N
  Sensitivity to Compound 1 Fold EC50 Shift: 31 fold
PR8-PB2-K376Q
  Sensitivity to Compound 1 Fold EC50 Shift: 408 fold
